Like-named read-outs stand apart in the source and are kept apart here.
Key:
[1] = system: viable cells in culture; test: Cell viability assay (CellTiter-Glo Luminescent Cell Viability Assay, ATP quantitation, percent of vehicle control)
[2] = system: human TERT expression (hTERT mRNA); test: Quantitative real-time RT-PCR of hTERT mRNA expression (Ct, transcripts) in compound-treated cells; assay type: cell-based
Summary of the method: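 Read-out is cycle threshold, the cycle at which probe fluorescence released by Taq 5′-nuclease activity crosses a set level; Ct falls as hTERT mRNA rises. cDNA of treated and untreated cells was compared, with starting transcripts quantified against a known-cDNA standard curve.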

SMILES	Average Cell Viability after 24 Hours (% DMSO) [1]	Average Number of hTERT Transcripts ([2]; quantitative real-time RT-PCR)	Average Number of hTERT Transcripts [2]
CCc1ccc(NC2c3ccccc3C(=O)N2Cc2ccc3c(c2)OCO3)cc1 (stereo not shown) [compound 1326]	86.99 % DMSO	8.73	
Cc1cc(Br)ccc1NC(=O)Cn1ncc2c(=O)oc3ccccc3c21 [compound 1327]	101.34 % DMSO	4.67	
COc1ccc(Br)cc1CNC(=O)Cn1ncc2c(=O)oc3ccccc3c21 [compound 1328]	71.81 % DMSO	5.42	
CC1(C(=O)O)CC(=O)N=C2C=CC(Cl)=CN21 (stereo not shown) [compound 1329]	94.31 % DMSO	3.63	
COc1cc(C(=O)Nc2ccc(-c3nc4ccccc4[nH]3)cc2)ccc1OC(C)=O [compound 1330]	97.84 % DMSO	3.59	
COC(=O)CSc1nnc(-c2sc3ccccc3c2Cl)n1C [compound 1331]	90.44 % DMSO	32.92	
C=CCc1c(C)nc(SCC(=O)Nc2cc(Cl)cc(Cl)c2)[nH]c1=O [compound 1332]	94.78 % DMSO	12.68	
Cc1ccc(-c2noc(CN3CCOCC3)n2)cc1 [compound 1333]	96.79 % DMSO	3.71	
O=C(Nc1cc([N+](=O)[O-])ccc1O)c1cccc(F)c1 [compound 1334]	75.50 % DMSO	31.04	
O=[N+]([O-])c1ccc(NS(=O)(=O)c2cccc(C(F)(F)F)c2)cc1 [compound 1335]	75.24 % DMSO	11.78	
CC(=O)N1C(=O)C(=O)c2cc(Cl)ccc21 [compound 1336]	100.05 % DMSO	7.64	
CCOC(=O)COc1ccc2c(=O)c(-c3ccccc3Cl)c(C)oc2c1C [compound 1337]	67.33 % DMSO	30.15	
Cc1ccc(NC(=O)c2cc([N+](=O)[O-])ccc2O)cc1 [compound 1338]	80.45 % DMSO	49.42	
O=C(NC(=S)Nc1cc(Cl)cc(Cl)c1)c1cccc(F)c1 [compound 1339]	68.94 % DMSO	7.09	
CCC(C)Cn1c(CO)nc2ccccc21 (stereo not shown) [compound 1340]	106.88 % DMSO	4.37	
Cc1ccc(N)cc1S(=O)(=O)N1CCCCC1 [compound 1341]	110.20 % DMSO	4.50	
CCOC(=O)c1cc(NC(=O)N(C(C)C)C(C)C)c(C)nc1C [compound 1342]	103.16 % DMSO	4.48	
O=C(CSc1ncccc1C(=O)O)Nc1ccc(Oc2ccccc2)cc1 [compound 1343]	103.75 % DMSO	4.57	
S=C(Nc1ccc(Br)cc1)Nc1cccc(Cl)c1 [compound 1344]	42.95 % DMSO	7.86	
S=C(Nc1cccc(Cl)c1)Nc1cc(Cl)ccc1Cl [compound 1345]	45.42 % DMSO	24.88	
COC(=O)COc1ccc(NC(=O)CSc2ccc(Cl)cc2)cc1 [compound 1346]	56.33 % DMSO	31.23	
CC(C)CN1CC23C=CC(O2)C(C(=O)OCc2ccccc2)C3C1=O (stereo not shown) [compound 1347]	118.20 % DMSO	12.01	
CCOC(=O)CSc1nc(C)c(CC)c(C)c1C(N)=O [compound 1348]	106.19 % DMSO	5.97	
O=C(CCN1C(=O)c2cccc3cccc(c23)C1=O)Nc1ccon1 [compound 1349]	76.50 % DMSO	12.52	
CC(C)Cc1nnc(SCC(=O)Nc2ccc(Br)cn2)[nH]1 [compound 1350]	98.43 % DMSO	5.91	

SMILES	Average Cell Viability after 24 Hours (% DMSO) [1]	Average Number of hTERT Transcripts ([2]; quantitative real-time RT-PCR)	Average Number of hTERT Transcripts [2]
CC1CCN(C(=O)CN(Cc2ccc(F)cc2)S(C)(=O)=O)CC1 [compound 1351]	98.19 % DMSO	5.17	
CC(C)COc1ccc(NC(=O)C2CC2)cc1 [compound 1352]	83.84 % DMSO	5.61	
Cc1ccc(NC(=O)NCc2ccccc2F)cc1C [compound 1353]	87.98 % DMSO	3.61	
O=C(O)/C=C1\NC(=O)c2ccccc21 [compound 1354]	96.80 % DMSO	14.31	
O=C(O)CC12CC3CC(C1)CC(CC(=O)O)(C3)C2 [compound 1355]	95.78 % DMSO	4.95	
O=C(NCCc1ccncc1)C(F)(F)F [compound 1356]	101.39 % DMSO	5.18	
COC(=O)c1cc(OC)c(OC)cc1NC(=S)N1CCN(C)CC1 [compound 1357]	95.29 % DMSO	9.07	
CNC(=O)C1CCN(Cc2ccc(F)cc2)CC1 [compound 1358]	111.88 % DMSO	7.53	
CCCn1c(=O)n(CC)c(=O)c2ccccc21 [compound 1359]	104.81 % DMSO	13.21	
CCOc1ccc(N2C(=O)CC(N3CCC4(CC3)OCCO4)C2=O)cc1 (stereo not shown) [compound 1360]	108.82 % DMSO	16.98	
CSc1nc2nc(C)c(C(C)=O)c(C)n2n1 [compound 1361]	109.24 % DMSO	17.57	
CCCOc1ccc2c(c1)c1c3n2CCN(C)C3=NCC1 [compound 1362]	75.90 % DMSO	15.20	
CC1(C)CC(NC(=O)c2ccc(S(=O)(=O)N3CCOCC3)cc2)CC(C)(C)N1 [compound 1363]	89.56 % DMSO	32.11	
Cc1ccc(N2CC(C(=O)N3CC(C)CC(C)C3)CC2=O)c(C)c1 (stereo not shown) [compound 1364]	104.57 % DMSO	9.06	
Cc1ccc(N2CC(C(=O)N3CCCC3)CC2=O)c(C)c1 (stereo not shown) [compound 1365]	99.89 % DMSO	10.67	
CCc1nc2[nH]c3c(c(=O)n2n1)CCC3 [compound 1366]	99.48 % DMSO	10.02	
Nc1ccc(OCCCc2ccccc2)cc1 [compound 1367]	94.27 % DMSO	7.25	
C=C(C)Cn1c(CCO)nc2ccccc21 [compound 1368]	106.63 % DMSO	9.25	
Cc1nn2c(-c3cccnc3)nnc2s1 [compound 1369]	98.38 % DMSO	15.35	
C=CCNS(=O)(=O)c1ccc(C(=O)N2CCCCC2C)cc1 (stereo not shown) [compound 1370]	107.18 % DMSO		11.58
CCC(=O)Nc1c(Br)cc(C)cc1C(=O)O [compound 1371]	105.87 % DMSO		5.46
O=S(=O)(Nc1cccc2cccnc12)N1CCCCCC1 [compound 1373]	65.74 % DMSO		37.20
Cc1ccccc1NC(=O)C1CC(Cl)=CCC1C(=O)O (stereo not shown) [compound 1374]	107.65 % DMSO		5.48
CCC(C)NC(=S)Nc1ccc([N+](=O)[O-])cc1 (stereo not shown) [compound 1375]	92.06 % DMSO		11.45
Cc1ccccc1NC(=O)C1CCN(S(=O)(=O)c2ccc(Br)cc2)CC1 [compound 1376]	88.77 % DMSO		4.72

From patent US12404304B1, “Telomerase reverse transcriptase (TERT) expression enhancing compounds and methods for using the same” (Sierra Sciences, LLC, priority 2007, dated 2025)
